The values below come from patent US8163793B2, “Proline derivatives” (Hoffman-La Roche Inc., priority 2009, dated 2012).

pIC50: −log10 of the molar value. Counter-ions that a name gives are not always drawn.

One test deals with Cat L (UniProt P07711). As to the kind of experiment: Cathepsin enzyme inhibition assay (fluorogenic peptide substrate Z-Val-Val-Arg-AMC), Cathepsin L. The test is classed as biochemical, human and mouse. The note with it: for pIC50: enzyme 1 nM, substrate 20 μM, pH 6.5, read-out: CatL IC50. The protocol:
(§1) Cathepsin Enzyme Inhibition Assay
(§2) Enzyme activity is measured by observing the increase in fluorescence intensity caused by cleavage of a peptide substrate containing a fluorophore whose emission is quenched in the intact peptide.
(§3) Assay buffer: 100 mM potassium phosphate pH 6.5, EDTA-Na 5 mM, Triton X-100 0.001%, DDT 5 mM.
(§4) Enzymes (all at 1 nM): human and mouse Cathepsin S, Cat K, Cat B, Cat L Substrate (20 μM): Z-Val-Val-Arg-AMC, except for Cat K which uses Z-Leu-Arg-AMC (both from Bachem).
(§5) AMC=7-Amino-4-Methyl-Coumarin.
Excitation 360 nm, Emission 465 nm.
Enzyme is added to the substance dilutions in 96-well microtitre plates and the reaction is started with substrate. Fluorescence emission is measured over 20 minutes, during which time a linear increase is observed in the absence of inhibitor. IC50 are calculated by standard methods. The results are expressed in μM in the following table.

The target of the next test is Cathepsin S (UniProt P25774). As to the kind of experiment: Cathepsin enzyme inhibition assay (fluorogenic peptide substrate Z-Val-Val-Arg-AMC), Cathepsin S. The note with it: enzyme 1 nM, substrate 20 μM, pH 6.5; read-out: CatS IC50. Type of test: biochemical, human and mouse. The protocol:
as §1, §2, §3, §4, §5
Enzyme is added to the substance dilutions in 96-well microtitre plates and the reaction is started with substrate. […] IC50 are calculated by standard methods. The results are expressed in μM in the following table.

For the molecule `COc1cc(C2(C(=O)N3C[C@H](S(=O)(=O)c4ccccc4Cl)C[C@H]3C(=O)NC3(C#N)CC3)CC2)c(Cl)cc1Cl` [Example 460, (2S,4R)-4-(2-Chloro-benzenesulfonyl)-1-[1-(2,4-dichloro-5-methoxy-phenyl)-cyclopropanecarbonyl]-pyrrolidine-2-carboxylic acid (1-cyano-cyclopropyl)-amide], the pIC50 on Cat L was 7.28; on Cathepsin S it was 8.23.

Take `CC(Oc1ccc(S(=O)(=O)[C@@H]2C[C@@H](C(=O)NC3(C#N)CC3)N(C(=O)OC(C)(C)C)C2)c(Cl)c1)C(F)(F)F` (stereo partly drawn) [Example 122, (2S,4R)-4-[2-Chloro-4-(2,2,2-trifluoro-1-methyl-ethoxy)-benzenesulfonyl]-2-(1-cyano-cyclopropylcarbamoyl)-pyrrolidine-1-carboxylic acid tert.-butyl ester]: the pIC50 at Cat L is 4.62; at Cathepsin S it was 8.03.

For the molecule `C=CCOc1ccccc1S(=O)(=O)[C@H]1CN[C@H](C(=O)NC2(C#N)CC2)C1` [Example 453, (2S,4R)-4-(2-Allyloxy-benzenesulfonyl)-pyrrolidine-2-carboxylic acid (1-cyano-cyclopropyl)-amide], the figures for the pIC50 on Cat L and on Cathepsin S were no more than 4.60 and 6.07, respectively.

As for `Cc1cc(N2C[C@H](S(=O)(=O)c3ccccc3C(F)(F)F)C[C@H]2C(=O)NC2(C#N)CC2)n(C2CCC2)n1` [Example 322, (2S,4R)-1-(2-Cyclobutyl-5-methyl-2H-pyrazol-3-yl)-4-(2-trifluoromethyl-benzenesulfonyl)-pyrrolidine-2-carboxylic acid (1-cyano-cyclopropyl)-amide], the negative-log IC50 (pIC50) at Cat L is 4.55; on Cathepsin S, 9.52.

On to `N#CC1(NC(=O)[C@@H]2C[C@@H](S(=O)(=O)c3ccc(-n4ccccc4=O)cc3C(F)(F)F)CN2)CC1` [Example 31, (2S,4R)-4-[4-(2-Oxo-2H-pyridin-1-yl)-2-trifluoromethyl-benzenesulfonyl]-pyrrolidine-2-carboxylic acid (1-cyano-cyclopropyl)-amide hydrochloride], for which the values for the pIC50 on Cat L and on Cathepsin S were no more than 4.60 and 8.70, respectively.

With `N#CC1(NC(=O)[C@@H]2C[C@@H](S(=O)(=O)c3ccc(OCC(F)(F)F)cc3Cl)CN2C(=O)C2(c3ccc(Br)cc3)CC2)CC1` [Example 273, (2S,4R)-1-[1-(4-Bromo-phenyl)-cyclopropanecarbonyl]-4-[2-chloro-4-(2,2,2-trifluoro-ethoxy)-benzenesulfonyl]-pyrrolidine-2-carboxylic acid (1-cyano-cyclopropyl)-amide], the pIC50 is 8.09 at Cat L and 9.54 at Cathepsin S.

In the case of `N#CC1(NC(=O)[C@@H]2C[C@@H](S(=O)(=O)c3ccccc3Cl)CN2C(=O)C2(c3ccc(Cl)c(Cl)c3)CC2)CC1` [Example 284, (2S,4R)-4-(2-Chloro-benzenesulfonyl)-1-[1-(3,4-dichloro-phenyl)-cyclopropanecarbonyl]-pyrrolidine-2-carboxylic acid (1-cyano-cyclopropyl)-amide], the pIC50 is 6.33 at Cat L and 10.15 at Cathepsin S.

Take `N#CC1(NC(=O)[C@@H]2C[C@@H](S(=O)(=O)c3ccccc3Cl)CN2)CCC1` [Example 45, (2S,4R)-4-(2-Chloro-benzenesulfonyl)-pyrrolidine-2-carboxylic acid (1-cyano-cyclobutyl)-amide Hydrochloride]: the pIC50 was no more than 4.60 on Cat L and 6.42 on Cathepsin S.

Consider `COCCOc1ccc(S(=O)(=O)[C@@H]2C[C@@H](C(=O)NC3(C#N)CC3)N(c3cc(C)nn3C3CCC3)C2)c(Cl)c1` [Example 489, (2S,4R)-4-[2-Chloro-4-(2-methoxy-ethoxy)-benzenesulfonyl]-1-(2-cyclobutyl-5-methyl-2H-pyrazol-3-yl)-pyrrolidine-2-carboxylic acid (1-cyano-cyclopropyl)-amide], for which the pIC50 at Cat L is 5.45; on Cathepsin S, 9.29.

Turning to `CC(=O)N[C@H]1CC[C@H](CC(=O)N2C[C@H](S(=O)(=O)c3ccc(OCC(F)(F)F)cc3Cl)C[C@H]2C(=O)NC2(C#N)CC2)CC1` [Example 274, (2S,4R)-1-[2-(4-Acetylamino-cyclohexyl)-acetyl]-4-[2-chloro-4-(2,2,2-trifluoro-ethoxy)-benzenesulfonyl]-pyrrolidine-2-carboxylic acid (1-cyano-cyclopropyl)-amide], the pIC50 was 5.04 at Cat L and 9.03 at Cathepsin S.

In the case of `Cc1cc(Cl)ccc1S(=O)(=O)[C@@H]1C[C@@H](C(=O)NC2(C#N)CC2)N(C(=O)OC(C)(C)C)C1` [Example 40, (2S,4R)-4-(4-Chloro-2-methyl-benzenesulfonyl)-2-(1-cyano-cyclopropylcarbamoyl)-pyrrolidine-1-carboxylic acid tert-butyl ester], the pIC50 on Cat L was 4.38; on Cathepsin S, 8.28.

With `N#CC1(NC(=O)[C@@H]2C[C@@H](S(=O)(=O)c3ccc(OCC(F)(F)F)cc3C(F)(F)F)CN2C(=O)C2(C(F)(F)F)CC2)CC1` [Example 237, (2S,4R)-4-[4-(2,2,2-Trifluoro-ethoxy)-2-trifluoromethyl-benzenesulfonyl]-1-(1-trifluoromethyl-cyclopropanecarbonyl)-pyrrolidine-2-carboxylic acid (1-cyano-cyclopropyl)-amide], the pIC50 at Cat L is no more than 4.60; on Cathepsin S it was 9.77.

For the molecule `CS(=O)(=O)[C@@H]1C[C@@H](C(=O)NC2(C#N)CC2)N(C(=O)C2(C(F)(F)F)CC2)C1` [Example 440, (2S,4R)-4-Methanesulfonyl-1-(1-trifluoromethyl-cyclopropanecarbonyl)-pyrrolidine-2-carboxylic acid (1-cyano-cyclopropyl)-amide], the pIC50 is no more than 4.60 on Cat L and 5.13 at Cathepsin S.

As for `COc1ccc(S(=O)(=O)[C@@H]2C[C@@H](C(=O)NC3(C#N)CC3)N(C(=O)OC(C)(C)C)C2)c(Cl)c1` [Example 387, (2S,4R)-4-(2-Chloro-4-methoxy-benzenesulfonyl)-2-(1-cyano-cyclopropylcarbamoyl)-pyrrolidine-1-carboxylic acid tert-butyl ester], the negative-log IC50 (pIC50) on Cat L is 4.28; at Cathepsin S it was 8.17.

Take `N#CCNC(=O)[C@@H]1C[C@@H](S(=O)(=O)c2ccccc2)CN1C(=O)C1CCCCC1` [Example 53, (2S,4R)-4-Benzenesulfonyl-1-cyclohexanecarbonyl-pyrrolidine-2-carboxylic acid cyanomethyl-amide]: the figures for the pIC50 on Cat L and at Cathepsin S were no more than 4.60 and 8.28, respectively.

Consider `N#CC1(NC(=O)[C@@H]2C[C@@H](S(=O)(=O)c3ccccc3Cl)CN2S(=O)(=O)c2ccc(-c3cnco3)cc2)CC1` [Example 323, (2S,4R)-4-(2-Chloro-benzenesulfonyl)-1-(4-oxazol-5-yl-benzenesulfonyl)-pyrrolidine-2-carboxylic acid (1-cyano-cyclopropyl)-amide], for which the pIC50 on Cat L was 5.32; on Cathepsin S, 9.36.

On to `N#CC1(NC(=O)[C@@H]2C[C@@H](S(=O)(=O)c3ccc(OCC(F)(F)F)cc3Cl)CN2C(=O)Cc2ccc(Cl)cc2)CC1` [Example 244, (2S,4R)-1-[2-(4-Chloro-phenyl)-acetyl]-4-[2-chloro-4-(2,2,2-trifluoro-ethoxy)-benzenesulfonyl]-pyrrolidine-2-carboxylic acid (1-cyano-cyclopropyl)-amide], for which the pIC50 was 5.23 on Cat L and 8.50 on Cathepsin S.

As for `Cc1cc(N2C[C@H](S(=O)(=O)c3ccc(F)cc3C(F)(F)F)C[C@H]2C(=O)NC2(C#N)CC2)n(-c2ccc(C(F)(F)F)cc2)n1` [Example 267, (2S,4R)-4-(4-Fluoro-2-trifluoromethyl-benzenesulfonyl)-1-[5-methyl-2-(4-trifluoromethyl-phenyl)-2H-pyrazol-3-yl]-pyrrolidine-2-carboxylic acid (1-cyano-cyclopropyl)-amide], the pIC50 at Cat L is 5.11; on Cathepsin S, 8.64.

Consider `N#CC1(NC(=O)[C@@H]2C[C@@H](S(=O)(=O)c3ccc(-n4cccn4)cc3Cl)CN2C(=O)C2(C(F)(F)F)CC2)CC1` [Example 147, (2S,4R)-4-(2-Chloro-4-pyrazol-1-yl-benzenesulfonyl)-1-(1-trifluoromethyl-cyclopropanecarbonyl)-pyrrolidine-2-carboxylic acid (1-cyano-cyclopropyl)-amide], for which the figures for the pIC50 on Cat L and at Cathepsin S were 4.87 and 9.40, respectively.

On to `CC(C)(C)c1ccc([C@@H]2N[C@](CCS(=O)(=O)c3ccccc3)(C(=O)NC3(C#N)CC3)C[C@H]2S(=O)(=O)c2ccccc2)cc1` [Example 441, (2S,4R,5S)-5-(4-tert-butylphenyl)-N-(1-cyanocyclopropyl)-4-(phenylsulfonyl)-2-(2-(phenylsulfonyl)ethyl)pyrrolidine-2-carboxamide], for which the figures for the pIC50 at Cat L and on Cathepsin S were no more than 4.60 and 7.07, respectively.

With `Cc1cc(N2C[C@H](S(=O)(=O)CC3CC3)C[C@H]2C(=O)NC2(C#N)CC2)n(-c2ccc(C(F)(F)F)cc2)n1` [Example 469, (2S,4R)-4-Cyclopropylmethanesulfonyl-1-[5-methyl-2-(4-trifluoromethyl-phenyl)-2H-pyrazol-3-yl]-pyrrolidine-2-carboxylic acid (1-cyano-cyclopropyl)-amide], the “CatL, % @25 uM” value on Cat L (@25 uM compound) is recorded as 97% @25 uM. The pIC50 at Cathepsin S is 6.08.

Broadly, the pIC50 is the negative decadic logarithm of the IC50, by convention in mol/L.
